We go through 1 molecule from PMC11346426, “1-Deoxy-D-xylulose 5-phosphate reductoisomerase as target for anti Toxoplasma gondii agents: crystal structure, biochemical characterization and biological evaluation of inhibitors” (Biochemical Journal, 2024).

A value given as a limit tells only on which side of the number the result lay.

One series concerns the target TgDXR (Toxoplasma gondii, UniProt S8ESX0). Put plainly: T. gondii DXR enzyme inhibition assay (NADPH oxidation, absorption at 340 nm). In kind it is biochemical. On the procedure:
The enzymatic assays were conducted at 30°C in 96 well plates using a total reaction volume of 150 µl containing 100 nM of purified TgDXR protein in dimeric state, 100 µM of NADPH and 4 mM of MgCl2 as cofactors, 100 µM of DXP as substrate in 50 mM HEPES buffer (pH 7.5) containing 50 µg/ml of BSA. For the screening, DXR inhibitors were tested for their inhibitory activity and their IC50 measurements at concentrations ranging from 100 µM to 3.05 nM, in dilution steps 1:2.
To optimize and to ensure the interaction of NADPH and its enzyme binding pocket, the assay solution was incubated for 10 min at 37°C. Then, the reaction was commenced with the addition of 100 µM of DXP to the complete assay mixture. The reaction was monitored by measuring the absorption at 340 nm every minute for 1 h using a microplate reader (Tecan® 200 Pro, Tecan Group, Männedorf, Switzerland). The initial velocity of the reactions were calculated, the values were then used in the software GraphPad PRISM™ (Version 9.5.1; San Diego, CA, U.S.A.) for determinations of the IC50 values.

The test system of series [1] is T. gondii ME49 tachyzoites. As to the kind of experiment: T. gondii in vitro growth assay ([3H]-uracil incorporation). Type of series: cell-based, Toxoplasma gondii. On the procedure: With the aim to assess the inhibitory in vitro effect on parasite growth, T. gondii growth assays were performed as described previously [[78-80]]. Compounds, previously diluted in culture media in appropriate stock solutions, were added to confluent monolayers of Hs27 cells in 96-flat well plates at various concentrations. Then, freshly harvested tachyzoites were added to the cultures at a multiplicity of infection of 1:1 (parasite/host cell ratio). As controls, untreated and uninfected Hs27 cells, 24 h pre-stimulated and T. gondii infected cells with human interferon γ (IFN γ) (300 U/ml) (Merck, Darmstadt, Germany, #I17001) and T. gondii infected cells only were employed. After 48 h incubation, proliferating toxoplasmas were labelled with 0.3 μCi/well of tritiated uracil (^3H-U; 5 mCi, Hartmann Analytic, Braunschweig, Germany, #ART1782). After 28-30 h of incubation, plates were frozen at -20°C overnight. Cells were then thawed and harvested (Basic96 Harvester; Zinsser Analytic, Skatron Instruments, Northridge, CA, U.S.A.), purified with glass fibre filters (Printed Filtermat A 102 mm × 258 mm; PerkinElmer, Waltham, MA, U.S.A.) and dried at 130°C for 15-20 min. Dried filters were then wrapped into transparent plastic covers, dunked with 10 ml scintillation cocktail (Betaplate Scint; PerkinElmer, Waltham, MA, U.S.A., #1205-440), sealed and then loaded into metal cassettes and the incorporation of ^3H-uracil into the RNA of proliferating toxoplasmas was measured using a β-counter, a liquid scintillation counter that measure the […] (Betaplate Liquid Scintillation Counter 1205; LKB-[…], Melbourne, Australia). All data sets were normalized to 100% of the positive control. The dose-response curves of the compounds were fitted by means of the statistics software GraphPad PRISMTM (Version 9.5.1; San Diego, CA, U.S.A.). The minimal concentrations of compounds required for 50% inhibition of the parasite (IC50 values) were determined by non-linear regression analysis. Pyrimethamine was used as reference anti-toxoplasma compound.

Series [2] is described as follows: MTT cytotoxicity assay on host cells. In kind it is cell-based. The following applies: human, Hs27 fibroblasts, 24 h incubation. On the procedure: The method based on the reduction of the tetrazolium dye MTT [3-(4,5-dimethylthiazole-2-yl)-2,5-diphenyltetrazolium bromide] to its purple insoluble formazan by mitochondrial NAD(P)H-dependent cellular oxidoreductase enzymes in living cells, previously described by Mosmann was employed to assess the cytotoxic effects of the examined DXR inhibitors on the host cells, as previously described [[78–80]]. Briefly, Hs27 cells were cultured in 96-well plates at a concentration of 5 × 10^4/well in (IMDM, Gibco–Thermo Fisher Scientific, Waltham, MA, U.S.A., #12440053) with a volume of 100 µl per well and incubated at 37°C overnight. Then, eleven two-fold serially diluted concentrations of the investigated compounds ranging from […] were prepared and added to each well. Hs27 cells were then incubated for 24 h in humidified atmosphere of 5% CO2 in air. Controls included wells containing medium alone without cells (blank), untreated Hs27 cells, DMSO (negative control) and staurosporine (0.031, 0.062, 0.125, 0.25, 0.5, 1 µM) (Merck, Darmstadt, Germany, #S4400) as apoptosis inducer. After incubation, the culture media was replaced with 100 µl of DMEM medium without phenol (Gibco-Thermo Fisher Scientific, Waltham, MA, U.S.A., #21041025) plus 10% heat-inactivated (FBS Standard, South America origin, FBS, 2 µm sterile filtered, PAN-Biotech, Aidenbach, Germany, #P30-3306), and […] 2-mercaptoethanol (Gibco-Thermo Fisher Scientific, Waltham, MA, U.S.A., #21985023). Thereafter, the MTT reagent was added to each well and analysis conducted following the manufacture instructions (CyQuant MTT Cell Viability Assay Kit, Thermo Fisher Scientific, Waltham, MA, U.S.A., #V-13154). The absorbance was measured at 570 nm on an ELISA microplate reer (TECAN Sunrise, Männedorf, Switzerland) and the percentage of viability was calculated when compared with the untreated control. The data set was subsequently adjusted by applying blank correction. Cell viability values expressed as percentage of the negative control value were calculated as follows: %Cellviability=meanabsorbanceoftreatedwells−blank/meanabsorbanceofnegativecontrol−blank×100. The cytotoxicity of each compound was expressed as half maximal cytotoxic concentration (CC50 values) against Hs27 cells. These values were calculated by a non-linear regression using GraphPad PRISM™ statistics software package (Version 9.5.1; San Diego, CA, U.S.A.) plotting the percentage viability against the log of compound concentrations.
A general note: Formazan colour is commonly taken as a measure of viable cells.

In the next series the test system is human fibroblasts Hs27. Put plainly: MTT cytotoxicity assay on host cells. Type of series: cell-based. As to conditions: concentration range 0.19–200 µM.

TgDXR, sequence (S8ESX0 entry or part of it): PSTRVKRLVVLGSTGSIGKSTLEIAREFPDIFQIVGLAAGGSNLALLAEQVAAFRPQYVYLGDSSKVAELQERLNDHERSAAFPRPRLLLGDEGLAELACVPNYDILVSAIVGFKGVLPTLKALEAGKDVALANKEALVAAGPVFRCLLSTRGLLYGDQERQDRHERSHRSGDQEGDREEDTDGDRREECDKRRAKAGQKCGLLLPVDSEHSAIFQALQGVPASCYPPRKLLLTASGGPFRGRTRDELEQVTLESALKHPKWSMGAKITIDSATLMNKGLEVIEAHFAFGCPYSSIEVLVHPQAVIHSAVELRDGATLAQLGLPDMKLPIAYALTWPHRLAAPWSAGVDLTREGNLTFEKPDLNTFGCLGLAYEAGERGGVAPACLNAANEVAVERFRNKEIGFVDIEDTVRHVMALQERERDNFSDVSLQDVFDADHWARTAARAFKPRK

As a reminder, the IC50 is the concentration needed to halve the response being measured. The CC50 is the concentration giving 50% cytotoxicity. Low values mean greater toxicity to the cells, high ones lower toxicity to the cells. Take `O=CN(O)CCCP(=O)(O)O` [Compound 1, Fosmidomycin, reference compound]: the concentration for half-maximal inhibition (IC50) at TgDXR is 1030 ± 210 nM; in series [1] (Toxoplasma gondii, T. gondii type II ME49 strain in Hs27 host cells, n = 6), over 200 µM. Besides, the “activity against T. gondii growth (in words)” value in series [1] (T. gondii type II ME49 strain, [3H]-uracil incorporation) is “no activity”. The 50% cytotoxic concentration (CC50) at 24 h in series [2] was over 200 µM. Also, the “host cell cytotoxicity (in words)” value in the series with human fibroblasts Hs27 is “did not show any detectable host cytotoxicity”.
